In PMC10488193, “Evaluation of the Chemical Stability, Membrane Permeability and Antiproliferative Activity of Cyclic Diarylheptanoids from European Hornbeam (Carpinus betulus L.)” (International Journal of Molecular Sciences, 2023):
“Also recorded” adds a separate entry of the source. Marks after values point to notes of the source that are not given here.

Legend:
[1] = tested on: lipid peroxidation in human plasma; parameters: method as in PMID 28520428; conditions: cited from earlier work
[2] = tested on: SK-Mel-28 human melanoma cell line; parameters: method as in PMID 28208804; conditions: cited from earlier work
[3] = tested on: HepG2 (hepatocellular carcinoma); assay: In vitro antiproliferative activity, Alamar Blue assay; type: cell-based; conditions: Homo sapiens; HepG2, 24 h treatment, then three days culture, n = 2; read-out: IC50 ± SD
[4] = tested on: A2058 (melanoma, derived from metastatic site: lymph node); assay: as above; type: cell-based; conditions: Homo sapiens; A2058, 24 h treatment, then three days culture, n = 2; read-out: IC50 ± SD
[5] = tested on: HL-60 (acute promyelocytic leukaemia); assay: as above; type: cell-based; conditions: Homo sapiens; HL-60, 24 h treatment, then three days culture, n = 2; read-out: IC50 ± SD
U87 (glioblastoma) = assay: as above; type: cell-based; conditions: Homo sapiens; U87, 24 h treatment, then three days culture, n = 2; read-out: IC50 ± SD
[6] = tested on: HT-29 (colorectal carcinoma); assay: as above; type: cell-based; conditions: Homo sapiens; HT-29, 24 h treatment, then three days culture, n = 2; read-out: IC50 ± SD
[7] = parameters: method as in PMID 12350169; conditions: cited from earlier work
[8] = Storage stability in solutions and hornbeam bark extracts (UHPLC-DAD); type: physicochemical
Protocol: For the analysis of the samples from the chemical stability as well as the PAMPA studies, sample concentrations were determined using our previously developed ultrahigh-performance liquid chromatography–diode array detection (UHPLC-DAD) method validated for linearity, precision and accuracy. Briefly, an ACQUITY UPLC H-Class PLUS System hyphenated with a quaternary solvent delivery pump (QSM), an auto-sampler manager (FTN), a column compartment (CM) and a photodiode array (PDA) detector (Waters Corporation) was employed. Stationary phase: Acquity BEH C18 column (100 × 2.1 mm i.d., 1.7 µm; Waters Corporation), column temperature: 30 °C. The mobile phase consisted of 0.3% acetic acid in water (eluent A) and acetonitrile (eluent B). The following gradient elution was applied at a flow rate of 0.3 mL/min: 0 min 12.0% B, 19.0 min 13.5% B, 25.5 min 75.0% B, 26.0 min 100.0% B, 28.0 min 100.0% B, 28.5 min 12.0% B.
We used the following equations to calculate the first-order reaction rate constant (k) and the half-life (t1/2) indicating the time required to reduce the concentration of diarylheptanoids by 50% [29]:ln (ct/c0) = −k × t(1) t1/2 = −ln 0.5 × k^−1(2) where ct is the concentration of the diarylheptanoids at time t, c0 is the initial concentration, k is the reaction rate constant, t is the treatment time.
The chemical stability of the isolated compounds in solutions was examined at a concentration of 50 µg/mL in methanol and water (in the latter case using methanol as co-solvent, final composition: water-methanol 90:10, v/v). Furthermore, the methanol and ethyl acetate extracts of C. betulus bark (concentration 4 mg/mL) were also studied in order to assess the effects of the accompanying substances. The storage stability studies were performed at a neutral pH value. All solutions were filtered through Phenex-RC 15 mm, 0.2 μm syringe filters (Gen-Lab Ltd., Budapest, Hungary). The samples were prepared in triplicate and stored protected from light at 22 ± 2.0 °C, 5 ± 1.5 °C and −15 ± 2.0 °C for 23 weeks. Quantities of the analytes of interest were quantified at weeks 12 and 23 using the abovementioned UHPLC-DAD method (see Section 3.4).
The effects of the temperature and the medium (i.e., solvent and accompanying substances) were analysed through one-way analysis of variance (ANOVA) followed by Tukey’s post hoc HSD test (p < 0.05). To establish the kinetic parameters t1/2 and k, Equations (1) and (2) were applied, respectively.

For `O=C1CCc2ccc(O)c(c2)-c2cc(ccc2O)C[C@H](O)[C@H](O)[C@H]1O` [Compound 2, carpinontriol B], the “lipid peroxidation induced by H2O2 (in words)” value [1] is given as “inhibited lipid peroxidation”, the “cytotoxic concentration (not cytotoxic up to)” value [2] is given as greater than 1000 µM and the IC50 [3] is given as greater than 100 µM. It also gave an IC50 [4] greater than 100 µM, an IC50 [5] greater than 100 µM and an IC50 (U87 (glioblastoma)) greater than 100 µM. The IC50 [6] was greater than 100 µM, the “antioxidant activity (in words)” value [7] was “only weak antioxidant activity” and the “concentration as compared to the initial value” ([8]; 12 weeks, 5 °C, EE (ethyl acetate extract of bark)) was 99.5 ± 0.4 ^#a %. For the same compound, the “concentration as compared to the initial value” ([8]; 12 weeks, 5 °C, EM (methanol extract of bark)) was 99.9 ± 0.8 ^a %, the “concentration as compared to the initial value” ([8]; 12 weeks, 5 °C, SA (aqueous solution)) was 99.9 ± 0.4 ^a % and the “concentration as compared to the initial value” ([8]; 12 weeks, 5 °C, SM (methanol solution)) was 99.4 ± 0.6 ^a %. For the same compound, the “concentration as compared to the initial value” ([8]; 12 weeks, 22 °C, EE (ethyl acetate extract of bark)) was 100.2 ± 0.7 ^a %, the “concentration as compared to the initial value” ([8]; 12 weeks, 22 °C, EM (methanol extract of bark)) was 101.1 ± 1.1 ^a % and the “concentration as compared to the initial value” ([8]; 12 weeks, 22 °C, SA (aqueous solution)) was 100.4 ± 1.1 ^a %. For the same compound, the “concentration as compared to the initial value” ([8]; 12 weeks, 22 °C, SM (methanol solution)) was 99.7 ± 0.4 ^a %, the “concentration as compared to the initial value” ([8]; 12 weeks, −15 °C, EE (ethyl acetate extract of bark)) was 100.1 ± 0.7 ^a % and the “concentration as compared to the initial value” ([8]; 12 weeks, −15 °C, EM (methanol extract of bark)) was 99.8 ± 0.7 ^a %. For the same compound, the “concentration as compared to the initial value” ([8]; 12 weeks, −15 °C, SA (aqueous solution)) was 99.1 ± 1.3 ^a %, the “concentration as compared to the initial value” ([8]; 12 weeks, −15 °C, SM (methanol solution)) was 99.1 ± 1.3 ^a % and the “concentration as compared to the initial value” ([8]; 23 weeks, 5 °C, EE (ethyl acetate extract of bark)) was 100.1 ± 0.4 ^a %. The “concentration as compared to the initial value” ([8]; 23 weeks, 5 °C, EM (methanol extract of bark)) was 99.2 ± 1.2 ^a %, the “concentration as compared to the initial value” ([8]; 23 weeks, 5 °C, SA (aqueous solution)) was 99.9 ± 0.5 ^a % and the “concentration as compared to the initial value” ([8]; 23 weeks, 5 °C, SM (methanol solution)) was 99.2 ± 0.5 ^a %. The “concentration as compared to the initial value” ([8]; 23 weeks, 22 °C, EE (ethyl acetate extract of bark)) was 99.7 ± 0.5 ^a %, the “concentration as compared to the initial value” ([8]; 23 weeks, 22 °C, EM (methanol extract of bark)) was 99.7 ± 0.3 ^#a % and the “concentration as compared to the initial value” ([8]; 23 weeks, 22 °C, SA (aqueous solution)) was 99.8 ± 0.9 ^a %. The “concentration as compared to the initial value” ([8]; 23 weeks, 22 °C, SM (methanol solution)) was 99.9 ± 0.6 ^a %, the “concentration as compared to the initial value” ([8]; 23 weeks, −15 °C, EE (ethyl acetate extract of bark)) was 99.8 ± 0.4 ^a % and the “concentration as compared to the initial value” ([8]; 23 weeks, −15 °C, EM (methanol extract of bark)) was 99.6 ± 0.7 ^a %. For the same compound, the “concentration as compared to the initial value” ([8]; 23 weeks, −15 °C, SA (aqueous solution)) was 99.1 ± 1.2 ^a %, the “concentration as compared to the initial value” ([8]; 23 weeks, −15 °C, SM (methanol solution)) was 99.1 ± 1.2 ^a % and the “storage stability in methanol and aqueous solutions (in words)” value ([8]; SM and SA, −15, 5, 22 °C, weeks 12 and 23) was “stable; also recorded: good stability”.
